The subject of this experiment is adult bovine cartilage cells. Nature of the experiment: GAG synthesis (35-sulfate incorporation) in cultured cartilage cells. Format: cell-based. Particulars: 4 hours incubation, individual agent. The protocol:
Articular cartilage was resected from human or animal joints aseptically and placed into a large petri dish in a small amount of DMEM/F-12 or F-12. The tissue was diced to 1-2 mm dimensions and transferred to a small culture flask containing 20 mL DMEM or F-12+400 u/mL collagenase. The flask was placed on the shaker and incubated overnight.
The cell digest was repeatedly aspirated to increase release of cells. The cell digest was then placed into a 50 mL sterile centrifuge tube and centrifuged in the Beckman at 1000 RPM for 10 minutes. The medium was discarded by pipette and fresh DMEM/F-12 containing 1% FCS added. Depending on the size of the pellet, about […] medium was added. Cell counts were determined by haemocytometer and the digest made up to a concentration of 100,000 cells/0.2 mL.
To conduct GAG synthesis, 0.2 mL was aliquoted into each well of a 96 well plate using an 8 channel pipetter and the cells allowed to attach for 24 hours. The media was removed and 0.3 mL of fresh 1% FCS media added for 2-3 days. On the day of the experiment, the media was removed and the experimental solutions containing 35-sulfate isotope were added. The incubation was continued for 4 hours. Termination: at the end of the incubation period, the labeling media was removed, the cell layer was rinsed repeatedly with cold 0.3 mL DMEM or F-12 (about 5 times.), and the cell layer was frozen for counting.
The cell layer for both the synthesis experiments were heated at 50 degrees after adding 100 ul 1 N NaOH for a period of 2 hours. 200 ul scintillant was added and the plates were placed in the counter. The data was expressed as CPM/100,000 cells.

Where “and” joins values, the source holds several entries; their conditions need not be identical. Equal values may be shown once.

The results in this text go back to patent publication US20070141181A1, “Use of anabolic agents, anti-catabolic agents, antioxidant agents, and analgesics for protection, treatment and repair of connective tissues in humans and animals” (NUTRAMAX LABORATORIES, INC., priority 1998, published 2007).

In the case of `C[S+](CC[C@H](N)C(=O)[O-])C[C@H]1O[C@@H](n2cnc3c(N)ncnc32)[C@H](O)[C@@H]1O` (some centres unmarked) [1% Sam, S-adenosylmethionine], the “Indv. Agents: CPM/100,000 cells” value is 123 CPM/100,000 cells. The “Indv. Agents: CPM/100,000 cells” value (listed as 3% Sam) was 42 CPM/100,000 cells. For the compound `N[C@H]1C(O)O[C@H](CO)[C@@H](O)[C@@H]1O` (some centres unmarked) [Glu-H, Glucosamine], the “Indv. Agents: CPM/100,000 cells” value is recorded as 117 CPM/100,000 cells. Take Chondroitin [CHSO4-L]: the “Indv. Agents: CPM/100,000 cells” value is 64 CPM/100,000 cells. Besides, the “Indv. Agents: CPM/100,000 cells” value (listed as ChS04-H) was 50 CPM/100,000 cells. In the case of Collagen, the “Indv. Agents: CPM/100,000 cells” value is 118 CPM/100,000 cells (3×) and 70 CPM/100,000 cells. For the compound `CCCCC/C=C\C/C=C\C/C=C\C/C=C\CCCC(=O)O` [AA, Arachadonic Acid], the “Indv. Agents: CPM/100,000 cells” value is 70 CPM/100,000 cells. In the case of Pentosan [10Pentos], the “Indv. Agents: CPM/100,000 cells” value is reported as 76 CPM/100,000 cells.
